Key:
[1] = target: human orexin-1 receptor (Homo sapiens (Human), UniProt O43613); test: Intracellular calcium measurements (FLIPR), antagonism of orexin-A response; type: cell-based; details: CHO cells expressing human orexin-1 receptor, 3 nM orexin-A, geometric mean if determined several times, read-out: IC50 OX1
Procedure: (§1) Antagonistic activities on both orexin receptors have been measured for each example compound using the following procedure:
(§2) In Vitro Assay: Intracellular Calcium Measurements:
(§3) Chinese hamster ovary (CHO) cells expressing the human orexin-1 receptor and the human orexin-2 receptor, respectively, are grown in culture medium (Ham F-12 with L-Glutamine) containing 300 μg/mL G418, 100 U/mL penicillin, 100 μg/mL streptomycin and 10% heat inactivated fetal calf serum (FCS). The cells are seeded at 20,000 cells/well into 384-well black clear bottom sterile plates (Greiner). The seeded plates are incubated overnight at 37° C. in 5% CO2. Human orexin-A as an agonist is prepared as 1 mM stock solution in MeOH:water (1:1), diluted in HBSS containing 0.1% bovine serum albumin (BSA), NaHCO3: 0.375 g/L and 20 mM HEPES for use in the assay at a final concentration of 3 nM.
(§4) Antagonists are prepared as 10 mM stock solution in DMSO, then diluted in 384-well plates using DMSO followed by a transfer of the dilutions into in HBSS containing 0.1% bovine serum albumin (BSA), NaHCO3: 0.375 g/L and 20 mM HEPES. On the day of the assay, 50 μL of staining buffer (HBSS containing 1% FCS, 20 mM HEPES, NaHCO3: 0.375 g/L, 5 mM probenecid (Sigma) and 3 μM of the fluorescent calcium indicator fluo-4 AM (1 mM stock solution in DMSO, containing 10% pluronic) is added to each well. The 384-well cell-plates are incubated for 50 min at 37° C. in 5% CO2 followed by equilibration at rt for 30 min before measurement.
(§5) Within the Fluorescent Imaging Plate Reader (FLIPR Tetra, Molecular Devices), antagonists are added to the plate in a volume of 10 μL/well, incubated for 120 min and finally 10 μL/well of agonist is added. Fluorescence is measured for each well at 1 second intervals, and the height of each fluorescence peak is compared to the height of the fluorescence peak induced by 3 nM orexin-A with vehicle in place of antagonist. The IC50 value (the concentration of compound needed to inhibit 50% of the agonistic response) is determined and may be normalized using the obtained IC50 value of an on-plate reference compound. Optimized conditions were achieved by adjustment of pipetting speed and cell splitting regime. The calculated IC50 values may fluctuate depending on the daily cellular assay performance. Fluctuations of this kind are known to those skilled in the art. In the case where IC50 values have been determined several times for the same compound, the geometric mean has been given.

[2] = target: human orexin-2 receptor (Homo sapiens (Human), UniProt O43614); test: as above; type: cell-based; details: CHO cells expressing human orexin-2 receptor, 3 nM orexin-A, geometric mean if determined several times, read-out: IC50 OX2
Procedure: as §1, §2, §3, §4, §5

human orexin-2 receptor, sequence (O43614 whole entry): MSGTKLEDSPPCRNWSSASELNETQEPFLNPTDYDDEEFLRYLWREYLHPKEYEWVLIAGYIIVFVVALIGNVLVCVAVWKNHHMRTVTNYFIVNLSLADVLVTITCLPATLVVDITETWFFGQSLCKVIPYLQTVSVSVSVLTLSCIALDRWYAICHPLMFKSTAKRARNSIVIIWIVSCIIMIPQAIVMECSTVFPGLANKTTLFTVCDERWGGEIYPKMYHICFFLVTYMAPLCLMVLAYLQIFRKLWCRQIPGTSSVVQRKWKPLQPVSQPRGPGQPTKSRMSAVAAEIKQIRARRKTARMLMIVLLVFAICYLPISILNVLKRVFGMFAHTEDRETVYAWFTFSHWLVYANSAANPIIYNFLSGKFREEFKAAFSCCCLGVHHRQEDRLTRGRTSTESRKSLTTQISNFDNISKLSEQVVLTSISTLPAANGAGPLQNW
human orexin-1 receptor, sequence (O43613 whole entry): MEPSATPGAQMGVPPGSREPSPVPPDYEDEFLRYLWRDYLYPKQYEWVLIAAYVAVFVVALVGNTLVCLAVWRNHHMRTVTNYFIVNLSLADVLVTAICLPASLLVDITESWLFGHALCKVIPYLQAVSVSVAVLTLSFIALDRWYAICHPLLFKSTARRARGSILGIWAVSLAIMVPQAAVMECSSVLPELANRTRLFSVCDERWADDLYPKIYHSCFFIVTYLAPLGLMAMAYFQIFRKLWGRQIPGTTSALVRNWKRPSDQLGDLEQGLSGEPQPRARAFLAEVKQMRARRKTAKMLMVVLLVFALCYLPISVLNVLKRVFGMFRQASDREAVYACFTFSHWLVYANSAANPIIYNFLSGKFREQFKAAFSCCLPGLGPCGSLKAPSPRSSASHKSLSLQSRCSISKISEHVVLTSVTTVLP

Row | SMILES | IC50 [1] [nM] | IC50 [2] [nM]
1 | Cc1ccc(-n2nccn2)c(C(=O)N2CC[C@H]2c2nc(-c3ccccc3)no2)c1 [Example 36, (5-Methyl-2-[1,2,3]triazol-2-yl-phenyl)-[(S)-2-(3-phenyl-[1,2,4]oxadiazol-5-yl)-azetidin-1-yl]-methanone] | 3820 | 287
2 | Cc1nc(C(=O)N2CC[C@H]2c2nc(-c3ccccc3OC(F)(F)F)no2)c(-c2ccccc2F)s1 [Example 37, [5-(2-Fluoro-phenyl)-2-methyl-thiazol-4-yl]-{(S)-2-[3-(2-trifluoromethoxy-phenyl)-[1,2,4]oxadiazol-5-yl]-azetidin-1-yl}-methanone] | 458 | 59
3 | Cc1cccc(-c2sc(C)nc2C(=O)N2CC[C@H]2c2nc(-c3ccccc3OC(F)(F)F)no2)c1 [Example 38, (2-Methyl-5-m-tolyl-thiazol-4-yl)-{(S)-2-[3-(2-trifluoromethoxy-phenyl)-[1,2,4]oxadiazol-5-yl]-azetidin-1-yl}-methanone] | 322 | 119
4 | Cc1ccc(-c2ccccc2)c(C(=O)N2CC[C@H]2c2nc(-c3ccccc3OC(F)(F)F)no2)c1 [Example 39, (4-Methyl-biphenyl-2-yl)-{(S)-2-[3-(2-trifluoromethoxy-phenyl)-[1,2,4]oxadiazol-5-yl]-azetidin-1-yl}-methanone] | 75 | 4
5 | Cc1nc(C(=O)N2CC[C@H]2c2nc(-c3ccccc3OC(F)(F)F)no2)c(-c2ccccc2)s1 [Example 40, (2-Methyl-5-phenyl-thiazol-4-yl)-{(S)-2-[3-(2-trifluoromethoxy-phenyl)-[1,2,4]oxadiazol-5-yl]-azetidin-1-yl}-methanone] | 221 | 41
6 | CN(C)c1nc(C(=O)N2CC[C@H]2c2nc(-c3ccccc3OC(F)(F)F)no2)c(-c2ccccc2)s1 [Example 41, (2-Dimethylamino-5-phenyl-thiazol-4-yl)-{(S)-2-[3-(2-trifluoromethoxy-phenyl)-[1,2,4]oxadiazol-5-yl]-azetidin-1-yl}-methanone] | 43 | 10
7 | O=C(c1ncsc1-c1ccccc1)N1CC[C@H]1c1nc(-c2ccccc2OC(F)(F)F)no1 [Example 42, (5-Phenyl-thiazol-4-yl)-{(S)-2-[3-(2-trifluoromethoxy-phenyl)-[1,2,4]oxadiazol-5-yl]-azetidin-1-yl}-methanone] | 400 | 266
8 | O=C(c1ncsc1-c1cccc(Cl)c1)N1CC[C@H]1c1nc(-c2ccccc2OC(F)(F)F)no1 [Example 43, [5-(3-Chloro-phenyl)-thiazol-4-yl]-{(S)-2-[3-(2-trifluoromethoxy-phenyl)-[1,2,4]oxadiazol-5-yl]-azetidin-1-yl}-methanone] | 288 | 357
9 | Cc1ccc(-c2sc(C)nc2C(=O)N2CC[C@H]2c2nc(-c3ccccc3OC(F)(F)F)no2)cc1 [Example 44, (2-Methyl-5-p-tolyl-thiazol-4-yl)-{(S)-2-[3-(2-trifluoromethoxy-phenyl)-[1,2,4]oxadiazol-5-yl]-azetidin-1-yl}-methanone] | 282 | 73
10 | Cc1nc(C(=O)N2CC[C@H]2c2nc(-c3ccccc3OC(F)(F)F)no2)c(-c2ccccc2C)s1 [Example 45, (2-Methyl-5-o-tolyl-thiazol-4-yl)-{(S)-2-[3-(2-trifluoromethoxy-phenyl)-[1,2,4]oxadiazol-5-yl]-azetidin-1-yl}-methanone] | 745 | 416
11 | Cc1cccc(-n2nccn2)c1C(=O)N1CC[C@H]1c1nc(-c2ccccc2OC(F)(F)F)no1 [Example 46, (2-Methyl-6-[1,2,3]triazol-2-yl-phenyl)-{(S)-2-[3-(2-trifluoromethoxy-phenyl)-[1,2,4]oxadiazol-5-yl]-azetidin-1-yl}-methanone] | 1020 | 115
12 | O=C(c1cc(OC(F)(F)F)ccc1-n1nccn1)N1CC[C@H]1c1nc(-c2ccccc2OC(F)(F)F)no1 [Example 47, (2-[1,2,3]Triazol-2-yl-5-trifluoromethoxy-phenyl)-{(S)-2-[3-(2-trifluoromethoxy-phenyl)-[1,2,4]oxadiazol-5-yl]-azetidin-1-yl}-methanone] | 618 | 727
13 | O=C(c1cc(C(F)(F)F)ccc1-n1nccn1)N1CC[C@H]1c1nc(-c2ccccc2OC(F)(F)F)no1 [Example 48, (2-[1,2,3]Triazol-2-yl-5-trifluoromethyl-phenyl)-{(S)-2-[3-(2-trifluoromethoxy-phenyl)-[1,2,4]oxadiazol-5-yl]-azetidin-1-yl}-methanone] | 960 | 239
14 | Cc1cccc(-c2ocnc2C(=O)N2CC[C@H]2c2nc(-c3ccccc3OC(F)(F)F)no2)c1 [Example 49, (5-m-Tolyl-oxazol-4-yl)-{(S)-2-[3-(2-trifluoromethoxy-phenyl)-[1,2,4]oxadiazol-5-yl]-azetidin-1-yl}-methanone] | 223 | 305
15 | O=C(c1ccccc1-n1nccn1)N1CC[C@H]1c1nc(-c2ccccc2OC(F)(F)F)no1 [Example 50, (2-[1,2,3]Triazol-2-yl-phenyl)-{(S)-2-[3-(2-trifluoromethoxy-phenyl)-[1,2,4]oxadiazol-5-yl]-azetidin-1-yl}-methanone] | 583 | 91
16 | Cc1cccc(-c2scnc2C(=O)N2CC[C@H]2c2nc(-c3ccccc3OC(F)(F)F)no2)c1 [Example 51, (5-m-Tolyl-thiazol-4-yl)-{(S)-2-[3-(2-trifluoromethoxy-phenyl)-[1,2,4]oxadiazol-5-yl]-azetidin-1-yl}-methanone] | 276 | 342
17 | Cc1cccc(-c2oc(C)nc2C(=O)N2CC[C@H]2c2nc(-c3ccccc3OC(F)(F)F)no2)c1 [Example 52, (2-Methyl-5-m-tolyl-oxazol-4-yl)-{(S)-2-[3-(2-trifluoromethoxy-phenyl)-[1,2,4]oxadiazol-5-yl]-azetidin-1-yl}-methanone] | 357 | 309
18 | Cc1onc(-c2ccccc2Cl)c1C(=O)N1CC[C@H]1c1nc(-c2ccccc2OC(F)(F)F)no1 [Example 53, [3-(2-Chloro-phenyl)-5-methyl-isoxazol-4-yl]-{(S)-2-[3-(2-trifluoromethoxy-phenyl)-[1,2,4]oxadiazol-5-yl]-azetidin-1-yl}-methanone] | 1230 | 1190
19 | O=C(c1ccccc1-c1ccccc1)N1CC[C@H]1c1nc(-c2ccccc2OC(F)(F)F)no1 [Example 54, Biphenyl-2-yl-{(S)-2-[3-(2-trifluoromethoxy-phenyl)-[1,2,4]oxadiazol-5-yl]-azetidin-1-yl}-methanone] | 129 | 10
20 | Cc1nc(C(=O)N2CC[C@H]2c2nc(-c3cccc(Cl)c3C)no2)c(-c2ccccc2F)s1 [Example 55, {(S)-2-[3-(3-Chloro-2-methyl-phenyl)-[1,2,4]oxadiazol-5-yl]-azetidin-1-yl}-[5-(2-fluoro-phenyl)-2-methyl-thiazol-4-yl]-methanone] | 1200 | 218
21 | Cc1cccc(-c2sc(C)nc2C(=O)N2CC[C@H]2c2nc(-c3cccc(Cl)c3C)no2)c1 [Example 56, {(S)-2-[3-(3-Chloro-2-methyl-phenyl)-[1,2,4]oxadiazol-5-yl]-azetidin-1-yl}-(2-methyl-5-m-tolyl-thiazol-4-yl)-methanone] | 436 | 280
22 | Cc1ccc(-c2ccccc2)c(C(=O)N2CC[C@H]2c2nc(-c3cccc(Cl)c3C)no2)c1 [Example 57, {(S)-2-[3-(3-Chloro-2-methyl-phenyl)-[1,2,4]oxadiazol-5-yl]-azetidin-1-yl}-(4-methyl-biphenyl-2-yl)-methanone] | 89 | 4
23 | Cc1nc(C(=O)N2CC[C@H]2c2nc(-c3cccc(Cl)c3C)no2)c(-c2ccccc2)s1 [Example 58, {(S)-2-[3-(3-Chloro-2-methyl-phenyl)-[1,2,4]oxadiazol-5-yl]-azetidin-1-yl}-(2-methyl-5-phenyl-thiazol-4-yl)-methanone] | 1030 | 133
24 | Cc1c(Cl)cccc1-c1noc([C@@H]2CCN2C(=O)c2nc(N(C)C)sc2-c2ccccc2)n1 [Example 59, {(S)-2-[3-(3-Chloro-2-methyl-phenyl)-[1,2,4]oxadiazol-5-yl]-azetidin-1-yl}-(2-dimethylamino-5-phenyl-thiazol-4-yl)-methanone] | 43 | 7
